Measured values taken from patent US5061720A, “Substituted-4-thiazolidinone derivatives” (A. H. Robins Company, Inc., priority 1989, dated 1991).

Experiments:
[1] = target: T1, cyclooxygenase (Ovis aries, UniProt P05979); assay: Cyclooxygenase Assay (polarigraphic oxygen consumption, lipid-depleted sheep seminal vesicle microsomes); format: biochemical; settings: 30° C., 2 min incubation, ammonium arachidonate substrate
T1 construct: Lipid-depleted Sheep Seminal Vesicle Microsome Suspension; from tissue; host or cells: sheep seminal vesicle microsomes (lipid-depleted powder, detergent solubilized)
T1 sequence (P05979 25-600): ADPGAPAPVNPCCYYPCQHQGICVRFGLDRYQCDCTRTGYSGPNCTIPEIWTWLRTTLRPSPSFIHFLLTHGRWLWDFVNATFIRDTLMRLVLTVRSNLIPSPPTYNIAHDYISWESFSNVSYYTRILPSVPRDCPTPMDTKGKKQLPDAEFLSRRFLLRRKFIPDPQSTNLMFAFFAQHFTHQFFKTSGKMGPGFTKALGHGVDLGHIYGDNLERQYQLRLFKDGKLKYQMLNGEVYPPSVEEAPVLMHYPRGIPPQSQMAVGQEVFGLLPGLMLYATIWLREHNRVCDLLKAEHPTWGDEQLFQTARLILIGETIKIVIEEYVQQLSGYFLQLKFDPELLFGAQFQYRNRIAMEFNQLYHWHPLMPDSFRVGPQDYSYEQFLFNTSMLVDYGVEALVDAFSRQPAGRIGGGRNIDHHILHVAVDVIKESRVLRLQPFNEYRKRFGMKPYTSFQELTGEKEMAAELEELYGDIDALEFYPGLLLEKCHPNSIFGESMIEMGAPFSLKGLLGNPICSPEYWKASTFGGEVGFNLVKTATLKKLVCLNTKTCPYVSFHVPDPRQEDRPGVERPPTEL
Experimental: Cyclooxygenase activity was determined polarigraphically with detergent solubilized, lipid-depleted sheep seminal vesical microsomes. Addition of test articles that inhibit cyclooxygenase, including reference standards, cause a decrease in the rate of oxygen consumption in the reactions. Cyclooxygenase activity is determined using the following procedures:
I. Preparation of Test Materials
1. Lipid-Depleted Sheep Seminal Vesicle Microsomal Powder. This preparation follows the procedure of G. Graff et al. J. Biol. Chem. 253, 7662 (1978).
2. Ammonium Arachidonate Solution. A 250 μL aliquot of 20.0 mM arachidonic acid in absolute ethanol and a 50-μL aliquot of concentrated ammonium hydroxide is placed into a test tube. The solvent and excess ammonium hydroxide is evaporated under a stream of nitrogen at room temperature. The ammonium arachidonate residue is dissolved in 500 μL of 100 mM 2-amino-2-hydroxymethyl-1,3-propanediol hydrochloride (Tris HCl) buffer (pH 8.0) by using a vortex mixer. The final concentration of ammonium arachidonate (working solution) is 10.0 mM.
3. Enzyme Buffer 100 mM Tris HCl (pH 8.0) containing 2.0 mM phenol, 5.0 mM ethylenediaminetetraacetic acid (EDTA), 5.0 mM diethyldithiocarbamic acid and 1.0% Tween 20.
4. Reaction Buffer 100 mM Tris HCl (pH 8.0) containing 2.0 μM hematin and 1.0 mM phenol (prepared daily).
5. Detergent Solubilized Lipid-depleted Sheep Seminal Vesicle Microsome Suspension. Ten mg (solid) of lipid-depleted microsomal powder from sheep seminal vesicles is suspended in 1.0 mL of enzyme buffer and kept at 4° C. until used.
6. Solutions of Test (Formula I compound) or Reference Articles. Test and reference articles are dissolved in the reaction buffer prepared in 4) or a solvent that will not interfere with cyclooxygenase activity, e.g., dimethylsulfoxide, ethanol or acetone.
II. Cyclooxygenase Inhibition Assay
Three mL of the reaction buffer and 20 μL of the microsomal enzyme suspension are placed in a Yellow Springs Instrument (YSI) oxygen chamber where the temperature is maintained at 30° C. by means of a temperature controlled circulating water bath. Aliquots of the solutions containing ≤[…] of Formula I compound (test article) or reference article [see 6) above] are added to the YSI chamber and incubated for 2 minutes. The reaction is initiated by addition of 30 μL of the 10 mM ammonium arachidonate solution and cyclooxygenase activity determined polarigraphically using an oxygen electrode by measuring the rate of oxygen consumption [Cook et al., Anal. Biochem 96 341-51 (1979) and Cook and Lands, Can. J. Biochem. 53, 1220-1231 (1975)].
Test, reference, and control articles were evaluated in triplicate. Cyclooxygenase activity was determined from the slope (mv/unit time) of the recorder tracing with 1 mV being proportional to a 2.34 μM change in oxygen concentration.
The IC50 (concentration of test or reference article that inhibits the reaction by 50%) was calculated from cumulative plots relating the extent of inhibition of cyclooxygenase activity in control group assays to increasing concentrations of test article. Where no inhibition exists, the IC50 is expressed as greater than the highest concentration of the drug tested.

[2] = system: guinea pig skin; assay: UV-Erythema in Guinea Pigs; format: in vivo; design: key: +: active; -: inactive; settings: topical, 50 μL of cream with 1.0 mg test article per 1 g, immediately after UV exposure; active = composite score significantly lower than control, Dunnett's t-test p≤0.05
Experimental: I. Preparation of Formulation (cream)
All drugs tested were prepared by thoroughly incorporating 1.0 mg of the test article into 1 g of a pH 7.0 cream vehicle of the following composition.
methyl glucose sesquistearate 1.6%
methyl gluceth-20 sesquistearate 2.4%
emulsifying wax, N.F. 5.0%
mineral oil (heavy), U.S.P. 1.0%
white petrolatum, U.S.P. 5.0%
stearic acid, U.S.P. 2.5%
sodium benzoate, N.F. 0.1%
magnesium aluminum silicate 1.5%
deionized water, pH 7.0 64.8%
The preparations were packed into 1-cc plastic syringes.
II. Pharmacological Assay
The backs of female, English short hair guinea pigs (250-500 g) were shaved and depilated with Nair®. Control and treated groups each consisted of 5 animals, and selection of the animals and the control and treatment groups was achieved by random procedures. A rubber sheet with three one-half inch holes spaced one-half inch apart was draped over backs of the guinea pigs. The guinea pigs were then exposed to ultraviolet (UV) light (Hanovia Model 10, ~650-800 μW/cm^2) for 15 seconds by holding the animals against the light source. Fifty μL of the test drug or reference drug (indomethacin or bromfenac) preparation were immediately rubbed onto the skin, either on the area exposed to UV light or to an area adjacent to the UV light exposed skin. The degree of erythema for each exposed area was scored at various times following exposure according to the following scale:
1=slight redness with faint outline
2=moderate to marked redness with distinct outline
The score was totaled for each guinea pig (maximum score is 6). The Dunnett's t-test was used to determine significant (p≤0.05) differences from the control (placebo treated) group.

Row | Compound | IC50 [1] | U.V. erythema (+ = active, - = inactive) [2]
1 | CCCCC1SC(c2cccc(Oc3ccccc3)c2)N(CCCCC(=O)O)C1=O (centres unmarked) [Example 45, 5-Butyl-4-oxo-2-(3-phenoxyphenyl)-3-thiazolidinepentanoic acid] | 9300 nM | +
2 | CC1SC(c2cccc(Oc3ccccc3)c2)N(CCCCc2ccccc2)C1=O (centres unmarked) [Example 7, 5-Methyl-2-(3-phenoxyphenyl)-3-(4-phenylbutyl)-4-thiazolidinone] | 1400 nM | +
3 | CCCCC1SC(c2cccc(Oc3ccccc3)c2)N(CCc2ccccc2)C1=O (centres unmarked) [Example 17, 5-Butyl-2-(3-phenoxyphenyl)-3-(2-phenylethyl)-4-thiazolidinone] | 3400 nM | -
4 | CCCC[C@@H]1S[C@@H](c2cccc(Oc3ccccc3)c2)NC1=O (relative stereo) [Example 83, 5-Butyl-2-(3-phenoxyphenyl)-4-thiazolidinone] | 12000 nM | -
5 | CCCC[C@@H]1S[C@H](c2cccc(Oc3ccccc3)c2)N(CCCCCC(=O)OCC)C1=O (relative stereo) [Example 51] | 260 nM | -

These reach a lower IC50 [1]. Values come first.

Row | IC50 [1] | Compound | U.V. erythema (+ = active, - = inactive) [2]
6 | 90 nM | CCCCC1SC(c2cccc(Oc3ccccc3)c2)N(CCCCc2ccccc2)C1=O (centres unmarked) [Example 1, 5-Butyl-2-(3-phenoxyphenyl)-3-(4-phenylbutyl)-4-thiazolidinone] | +
7 | 10 nM | CCCCC1SC(c2cccc(C(=O)c3ccccc3)c2)N(CCCCc2ccccc2)C1=O (centres unmarked) [Example 8, 2-(3-Benzoylphenyl)-5-butyl-3-(4-phenylbutyl)-4-thiazolidinone] | +
